In experiment [1] the target is 5-hydroxytryptamine receptor 2A (Rattus norvegicus, UniProt P14842).
Experiment [2] deals with T1, 5-hydroxytryptamine receptor 3A (Mus musculus, UniProt P23979).
T1 sequence (P23979 whole entry): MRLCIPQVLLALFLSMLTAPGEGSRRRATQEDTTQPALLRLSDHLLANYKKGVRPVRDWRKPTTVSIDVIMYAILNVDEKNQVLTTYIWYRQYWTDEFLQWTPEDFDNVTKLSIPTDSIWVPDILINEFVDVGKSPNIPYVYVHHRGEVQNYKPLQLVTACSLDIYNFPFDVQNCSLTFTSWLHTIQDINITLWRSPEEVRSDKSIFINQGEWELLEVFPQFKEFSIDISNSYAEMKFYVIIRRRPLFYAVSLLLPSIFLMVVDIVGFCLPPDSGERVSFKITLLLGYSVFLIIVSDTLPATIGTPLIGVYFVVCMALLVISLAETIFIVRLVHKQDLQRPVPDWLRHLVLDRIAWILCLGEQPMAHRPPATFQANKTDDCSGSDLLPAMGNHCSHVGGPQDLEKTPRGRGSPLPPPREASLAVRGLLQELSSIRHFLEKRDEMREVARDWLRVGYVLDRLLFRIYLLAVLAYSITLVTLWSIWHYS

The target in experiment [3] is D(1A) dopamine receptor (Homo sapiens, UniProt P21728).
Sequence of D(1A) dopamine receptor (P21728 whole entry): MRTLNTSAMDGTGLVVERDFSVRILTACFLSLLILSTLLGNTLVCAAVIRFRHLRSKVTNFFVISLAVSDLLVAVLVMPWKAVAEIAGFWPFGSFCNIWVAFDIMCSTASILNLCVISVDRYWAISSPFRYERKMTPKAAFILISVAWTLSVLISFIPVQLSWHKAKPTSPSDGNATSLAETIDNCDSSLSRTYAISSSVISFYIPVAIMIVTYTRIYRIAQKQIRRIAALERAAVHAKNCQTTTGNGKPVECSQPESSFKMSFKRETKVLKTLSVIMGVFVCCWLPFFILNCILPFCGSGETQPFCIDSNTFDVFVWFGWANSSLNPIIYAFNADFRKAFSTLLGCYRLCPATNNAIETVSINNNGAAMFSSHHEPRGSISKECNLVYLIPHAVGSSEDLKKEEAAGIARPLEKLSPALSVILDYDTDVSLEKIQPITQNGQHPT
In experiment [4] the target is T2, 5-hydroxytryptamine receptor 1A (Homo sapiens, UniProt P08908).
T2 sequence (P08908 whole entry): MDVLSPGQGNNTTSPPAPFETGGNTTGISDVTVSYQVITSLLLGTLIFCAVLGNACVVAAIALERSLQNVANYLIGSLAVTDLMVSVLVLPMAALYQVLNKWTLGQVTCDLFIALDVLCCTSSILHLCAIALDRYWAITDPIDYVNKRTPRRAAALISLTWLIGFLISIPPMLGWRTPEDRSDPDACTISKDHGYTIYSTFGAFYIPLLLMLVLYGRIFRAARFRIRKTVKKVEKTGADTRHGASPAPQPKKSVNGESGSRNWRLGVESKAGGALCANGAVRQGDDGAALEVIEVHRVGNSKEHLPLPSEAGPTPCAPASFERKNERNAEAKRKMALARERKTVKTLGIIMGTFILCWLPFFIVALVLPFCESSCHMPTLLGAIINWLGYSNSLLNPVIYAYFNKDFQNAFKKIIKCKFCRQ

Experiment [5] has as its target T3, 5-hydroxytryptamine receptor 2C (Rattus norvegicus, UniProt P08909).
T3 sequence (P08909 whole entry): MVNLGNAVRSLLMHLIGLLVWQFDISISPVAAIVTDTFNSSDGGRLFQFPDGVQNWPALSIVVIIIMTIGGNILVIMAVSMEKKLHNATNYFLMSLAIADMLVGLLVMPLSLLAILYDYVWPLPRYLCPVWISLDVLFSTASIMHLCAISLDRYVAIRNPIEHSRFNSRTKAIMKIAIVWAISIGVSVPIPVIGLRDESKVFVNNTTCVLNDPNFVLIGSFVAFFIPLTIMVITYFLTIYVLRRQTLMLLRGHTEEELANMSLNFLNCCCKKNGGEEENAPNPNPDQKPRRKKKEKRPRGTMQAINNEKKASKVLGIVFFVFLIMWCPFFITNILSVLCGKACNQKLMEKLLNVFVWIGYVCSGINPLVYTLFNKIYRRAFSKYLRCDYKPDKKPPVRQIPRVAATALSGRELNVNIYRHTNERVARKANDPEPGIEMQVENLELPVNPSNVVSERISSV

Structures are written as SMILES. Counter-ions that a name gives are not always drawn.

As usually defined, the Ki is the dissociation constant of the complex between target and ligand, obtained from inhibition or displacement.

Sequence of 5-hydroxytryptamine receptor 2A (P14842 whole entry): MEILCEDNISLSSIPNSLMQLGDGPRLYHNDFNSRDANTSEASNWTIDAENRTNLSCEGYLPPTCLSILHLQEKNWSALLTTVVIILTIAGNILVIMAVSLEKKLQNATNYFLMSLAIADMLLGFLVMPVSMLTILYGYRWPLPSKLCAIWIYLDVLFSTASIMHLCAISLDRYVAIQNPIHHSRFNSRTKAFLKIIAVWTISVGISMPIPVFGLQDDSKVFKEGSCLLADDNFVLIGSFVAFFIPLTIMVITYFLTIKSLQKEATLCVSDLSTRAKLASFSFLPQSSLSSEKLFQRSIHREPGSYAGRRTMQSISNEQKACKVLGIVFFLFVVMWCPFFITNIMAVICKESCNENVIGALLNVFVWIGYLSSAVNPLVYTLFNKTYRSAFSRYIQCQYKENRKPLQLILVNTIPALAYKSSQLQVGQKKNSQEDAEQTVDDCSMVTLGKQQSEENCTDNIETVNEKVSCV

`CCCN(CCC)C1CCc2cccc(O)c2C1` (configuration not stated): the figures for the Ki in experiment [1], in experiment [2] and in experiment [3] were above 10000 nM, above 10 µM and above 10 µM, respectively.

In the case of `Cc1nc2sccn2c(=O)c1CCN1CCC(=C(c2ccc(F)cc2)c2ccc(F)cc2)CC1`, the Ki in experiment [2] was above 10 µM; in experiment [3] it was 0.933 µM.

With `Oc1cc2c(cc1O)[C@@H](c1ccccc1)CNCC2`, the Ki in experiment [1] is 6160 nM; in experiment [4], 3.1 µM; in experiment [2], above 10 µM; in experiment [5], above 10000 nM.

Turning to `C=CCN1CCc2cc(O)c(O)cc2C(c2ccccc2)C1` (configuration not stated), the Ki in experiment [1] amounted to 2700 nM; in experiment [4], 2.11 µM; in experiment [5], 3040 nM.

Consider `CC(N)Cc1ccc2c(c1)OCO2` (configuration not stated), for which the Ki in experiment [4], in experiment [2] and in experiment [3] was above 10 µM each time.

For `CC(C)(C)[C@]1(O)CCN2C[C@H]3c4ccccc4CCc4cccc(c43)[C@@H]2C1`, the Ki in experiment [1] was 5.2 nM; in experiment [4], 0.528 µM; in experiment [2], above 10 µM; in experiment [5], 1060 nM.

For the compound `CN(C)CCCN1c2ccccc2CCc2ccccc21`, the Ki in experiment [4] was above 10 µM; in experiment [2], 3.65 µM; in experiment [5], 106 nM; in experiment [3] it was above 10 µM.

Turning to `Cc1[nH]c2ccc(O)cc2c1CCN`, the inhibition constant (Ki) in experiment [1] is above 10000 nM; in experiment [2], 0.995 µM; in experiment [5] it was 1370 nM; in experiment [3], above 10 µM.

As to `NCCc1ccc(O)c(O)c1`, the Ki in experiment [1] is above 10000 nM; in experiment [4], 8.25 µM; in experiment [2], above 10 µM; in experiment [5], above 10000 nM.

Turning to `C=CCN1CCc2c(cc(O)c(O)c2Cl)C(c2ccccc2)C1` (racemic) [SKF 82958], the inhibition constant (Ki) in experiment [1] is 1300 nM; in experiment [4], 1.78 µM; in experiment [2], above 10 µM; in experiment [5], 4630 nM.

For `O=c1[nH]c2ccccc2n1C1CCN(CCCC(c2ccc(F)cc2)c2ccc(F)cc2)CC1` [1-(1-(4,4-bis(4-fluorophenyl)butyl)piperidin-4-yl)-1H-benzo[d]imidazol-2(3H)-one], the values for the Ki in experiment [1], in experiment [2] and in experiment [5] were 49 nM, 3.29 µM and 5790 nM, respectively.

As for `c1ccc2nc(N3CCNCC3)ccc2c1` [2-Piperazin-1-yl-quinoline (Quipazine)], the Ki in experiment [1] is 92 nM; in experiment [2], 0.0032 µM; in experiment [5], 653 nM; in experiment [3], above 10 µM.

Take `OCCN1CCN(CCCN2c3ccccc3Sc3ccc(C(F)(F)F)cc32)CC1` [2-[4-[3-[2-(trifluoromethyl)phenothiazin-10-yl]propyl]piperazin-1-yl]ethanol;hydrochloride]: in experiment [2], the Ki was above 10 µM.

For the compound `NC(Cc1ccc(O)c(O)c1)C(=O)O` (configuration not stated) [2-amino-3-(3,4-dihydroxyphenyl)propanoic acid], the Ki in experiment [1] is above 10000 nM; in experiment [2], above 10 µM; in experiment [5], above 10000 nM.

On to `COc1ccccc1N1CCN(CCCCN2C(=O)c3ccccc3C2=O)CC1` [2-{4-[4-(2-Methoxy-phenyl)-piperazin-1-yl]-butyl}-isoindole-1,3-dione], for which the inhibitory constant (Ki) was 549 nM in experiment [1], above 10 µM in experiment [2], 4120 nM in experiment [5] and 4.51 µM in experiment [3].

As for `O=C(c1ccc(F)cc1)C1CCN(CCn2c(=O)[nH]c3ccccc3c2=O)CC1` [3-(2-{4-[(4-fluorophenyl)carbonyl]piperidin-1-yl}ethyl)-1,2,3,4-tetrahydroquinazoline-2,4-dione], the Ki is above 10 µM in experiment [2] and 69 nM in experiment [5].

For the compound `CCN(CC)CCNC(=O)c1cc(Cl)c(N)cc1OC` [4-amino-5-chloro-N-[2-(diethylamino)ethyl]-2-methoxy-benzamide;hydrochloride], the Ki was above 10 µM in experiment [4], 0.353 µM in experiment [2], 3860 nM in experiment [5] and above 10 µM in experiment [3].

`O=C(CCCN1CCC2(CC1)C(=O)NCN2c1ccccc1)c1ccc(F)cc1` [8-[4-(4-fluorophenyl)-4-oxidanylidene-butyl]-1-phenyl-1,3,8-triazaspiro[4.5]decan-4-one] displayed a Ki in experiment [2] above 10 µM.

With `CN1Cc2c(N)cccc2[C@H](c2ccccc2)C1` [(+/-)-2-Methyl-4-phenyl-1,2,3,4-tetrahydro-isoquinolin-8-ylamine], the Ki in experiment [4] was 1.18 µM; in experiment [2], above 10 µM; in experiment [3], above 10 µM.

For `Oc1cc2c(c(Cl)c1O)CCNC[C@@H]2c1ccccc1` [(R)-6-Chloro-7,8-dihydroxy-1-phenyl-2,3,4,5-tetrahydro-1H-benzo[d]azepinium], the results for the inhibition constant Ki in experiment [1], in experiment [4] and in experiment [5] were 3080 nM, 5.52 µM and 1510 nM, respectively.

Take `OCCN1CCN(CC/C=C2/c3ccccc3Sc3ccc(C(F)(F)F)cc32)CC1` [(cis) 2-{4-[3-(2-Trifluoromethyl-thioxanthen-9-ylidene)-propyl]-piperazin-1-yl}-ethanol(Flupentixol)]: the Ki was 8.03 µM in experiment [4], above 10 µM in experiment [2] and 295 nM in experiment [5].

On to `CN1CCc2cccc3c2[C@H]1Cc1ccc(O)c(O)c1-3` [APOKYN], for which the Ki in experiment [1] is 4380 nM; in experiment [2], above 10 µM; in experiment [5], 1100 nM.

Consider `CNCCCN1c2ccccc2CCc2ccccc21` [Desmethylimipramine], for which the values for the Ki in experiment [2] and in experiment [5] were 4.4 µM and 748 nM, respectively.

Consider `OCCN1CCN(CC/C=C2/c3ccccc3Sc3ccc(C(F)(F)F)cc32)CC1` [Fluphenthixol], for which, in experiment [1], affinity was put at a Ki of 13 nM. This counts as double-digit nanomolar.

On to `CCN1CCCC1CNC(=O)c1cc(S(N)(=O)=O)ccc1OC` (configuration not stated) [N-[(1-ethylpyrrolidin-2-yl)methyl]-2-methoxy-5-sulfamoylbenzamide], for which the Ki in experiment [4], in experiment [2] and in experiment [3] was above 10 µM in each case.

Take `CCCN1CCC[C@@H]2Cc3n[nH]cc3C[C@H]21` [NSC_54562]: the inhibitory constant (Ki) in experiment [1] is above 10000 nM; in experiment [4], 1.71 µM; in experiment [2] it was above 10 µM; in experiment [5] it was above 10000 nM.

Regarding `Cc1nccn1CC1CCc2c(c3ccccc3n2C)C1=O` (configuration not stated) [NSC_68647], the values for the Ki in experiment [4], in experiment [2] and in experiment [3] were above 10 µM, 0.015 µM and above 10 µM, respectively.

In the case of `CNc1cc(OC)c(C(=O)N[C@H]2CCN(Cc3ccccc3)[C@H]2C)cc1Cl` [Nemonapride], the inhibitory constant (Ki) stood at 58 nM in experiment [1], 0.526 µM in experiment [2] and 3120 nM in experiment [5].

With `CN1CCc2cc(Cl)c(O)cc2[C@@H](c2ccccc2)C1` [SCH 23390,R(+)], the Ki in experiment [1] came to 12.2 nM; in experiment [4] it was 0.661 µM; in experiment [2] it was 3.91 µM; in experiment [5] it was 51 nM.

With `Cc1ccc(N(CC2=NCCN2)c2cccc(O)c2)cc1` [SMR000059054], the results for the Ki in experiment [1], in experiment [2] and in experiment [5] were 222 nM, 4.29 µM and 459 nM, respectively.

With `N[C@@H]1C[C@H]1c1ccccc1` [Tranylcypromine,(+)], the Ki in experiment [1] is above 10000 nM; in experiment [4], 5.96 µM; in experiment [2], above 10 µM; in experiment [5], above 10000 nM.

Compound `CN(C)CCCN1c2ccccc2Sc2ccc(Cl)cc21` [[3-(2-Chloro-phenothiazin-10-yl)-propyl]-dimethyl-amine(Chlorpromazine)] returned a Ki in experiment [2] of 0.82 µM. This lies in the sub-micromolar range.

Take `C[C@H](N)Cc1ccccc1` [beta-aminopropylbenzene]: the results for the Ki in experiment [4] and in experiment [2] were 6.61 µM and above 10 µM, respectively.

Regarding `CN(C)C/C=C(/c1ccc(Br)cc1)c1cccnc1` [cis-[3-(4-Bromo-phenyl)-3-pyridin-3-yl-allyl]-dimethyl-amine;HCl], the results for the Ki in experiment [2] and in experiment [5] were above 10 µM and 482 nM, respectively.

The compound `COC(=O)[C@@H]1[C@H]2C[C@H]3c4[nH]c5ccccc5c4CCN3C[C@@H]2CC[C@@H]1O` [yohimbic acid methyl ester] yielded a Ki in experiment [5] above 10000 nM.
